Consider one compound from article PMC3897731, “Antimicrobial Properties and Membrane-Active Mechanism of a Potential α-Helical Antimicrobial Derived from Cathelicidin PMAP-36” (PLoS ONE, 2014).

SMILES strings stand for the structures. Values after ≈ are worked out from the molar mass of the structure shown.

One data set deals with Escherichia coli UB1005. The following applies: broth microdilution, MH broth, 1×10^5 CFU/ml, 24 h at 37°C, visible turbidity, triplicate. Here is the method: (§1) The antimicrobial activity of each peptide was determined against the following bacteria strains: Escherichia coli ATCC 25922, Escherichia coli UB1005, Salmonella enterica serovar typhimurium C77-31, Staphylococcus aureus ATCC 29213, Staphylococcus aureus ATCC 25923 and Staphylococcus epidermidis ATCC 12228. The minimal inhibitory concentrations (MICs) of the peptides were measured according to a modified version of the National Committee for Clinical Laboratory Standards (NCCLS) broth microdilution method as described previously. Briefly, mid-logarithmic phase bacteria were cultured in Mueller-Hinton (MH) broth and then diluted to 1×10^5 CFU/ml. Equal volumes (50 µl) of microorganism solution and 2-fold serially diluted different concentrations (0.25–128 µM) peptides in 0.01% (v/v) acetic acid and 0.2% (w/v) bovine serum albumin (BSA, Sigma) were added to each well of the sterile 96-well plate. After incubation for 24 h at 37°C, MICs were determined as the lowest concentration of peptides that prevented visible turbidity by visual inspection. The tests were performed in triplicate. Cultures without peptides and uninoculated MH broth were employed as positive and negative controls, respectively. In addition, the salt stability of the peptides was tested in the MIC assay mentioned above.
(Dilution methods test growth across graded concentrations, often in twofold steps.)

In data set [1] the test system is Salmonella enterica serovar typhimurium C77-31. The following applies: broth microdilution, MH broth, 1×10^5 CFU/ml, 24 h at 37°C, visible turbidity, triplicate. The procedure:
as §1

In data set [2] the test system is Staphylococcus epidermidis ATCC 12228. The following applies: broth microdilution, MH broth, 1×10^5 CFU/ml, 24 h at 37°C, visible turbidity, triplicate. The procedure: as §1
Data set [3] deals with gram-negative and gram-positive bacteria (six strains tested). The following applies: 24 h. The procedure:
as §1

The subject of the next data set is human erythrocytes. Description: Hemolytic activity. Format: cell-based. The following applies: 1 h at 37°C. The procedure:
The hemolytic activity of the peptides was measured as the amount of hemoglobin released by the lysis of human erythrocytes. Briefly, 1 ml of fresh human blood cells (hRBCs) obtained from a healthy donor (Na Dong, Harbin, China) in a polycarbonate tube containing heparin was centrifuged at 1,000×g for 5 min at 4°C [16]. The experimental protocol was reviewed and approved by the ethics committee of the Northeast Agricultural University Hospital. The erythrocytes obtained were washed three times with phosphate-buffered saline (PBS) solution (pH 7.2) and resuspended in PBS. A 50 µl volume of the erythrocyte solution was incubated with 50 µl of various peptides dissolved in PBS for 1 h at 37°C. Intact erythrocytes were pelleted by centrifugation at 1,000×g for 5 min at 4°C, and the supernatant was transferred to a new 96-well plate. The release of hemoglobin was monitored by measuring the absorbance at 570 nm. As negative and positive controls, hRBCs in PBS without the peptide and 0.1% Triton X-100 were employed, respectively.

A further data set relates to E. coli ATCC 25922. Description: FACScan analysis of membrane integrity (propidium iodide). Format: cell-based, Escherichia coli. Here is the method:
The integrity of the bacterial cell membranes after peptide treatment was determined using a previously described method. In brief, mid-logarithmic phase E. coli ATCC 25922 were harvested by centrifugation and washed three times with 10 mM PBS solution. The peptides (1×MIC and 2×MIC) were added and incubated for 30 min at 28°C with constant shaking at 140 rpm, and then, propidium iodide (PI, 10 µg/ml final concentration, Sigma) was added and incubated for a further 30 min at 4°C. After incubation, the unbound dye was removed via excessive washing of cells with PBS. Flow cytometry analysis was conducted using a FACScan instrument (Becton–Dickinson, San Jose, CA). E. coli cells were incubated with PI without peptide treated as negative control.

For another data set, the system named is E. coli UB1005. The data set is described as follows: Inner (cytoplasmic) membrane depolarization, diSC3(5). Format: cell-based, Escherichia coli. The following applies: 0.4 µM diSC3(5), monitored over 360 s. Here is the method:
The cytoplasmic membrane depolarization activity of the peptides was measured by using E. coli UB1005 and the membrane potential sensitive fluorescent dye diSC3(5) as described previously. Briefly, mid-logarithmic phase E. coli were washed with 5 mM sodium HEPES buffer, pH 7.4, containing 20 mM glucose, and resuspended to an OD600 of 0.05 in the same buffer. The cell suspension was incubated with 0.4 µM diSC3(5) until a stable reduction of fluorescence was achieved (approximately 1 h). Then KCl was added to a final concentration of 0.1 M to equilibrate the cytoplasmic and external K^+. Two milliliters of the cell suspension were placed in a 1 cm cuvette, and the peptides were added to achieve the desired concentrations. Changes in fluorescence were recorded using an F-4500 fluorescence spectrophotometer (Hitachi, Japan) with an excitation wavelength of 622 nm and an emission wavelength of 670 nm. 0.1% Triton X-100 was employed as positive controls.

Regarding `CC[C@H](C)[C@H](NC(=O)CN)C(=O)NCC(=O)N[C@@H](C)C(=O)N[C@H](C(=O)N[C@@H](CC(C)C)C(=O)N[C@@H](CCCCN)C(=O)N[C@H](C(=O)N[C@@H](CC(C)C)C(=O)N[C@H](C(=O)N[C@H](C(=O)NCC(=O)N[C@@H](CC(C)C)C(=O)N1CCC[C@H]1C(=O)N[C@@H](C)C(=O)N[C@@H](CC(C)C)C(=O)N[C@H](C(=O)N[C@@H](CO)C(=O)N[C@@H](Cc1c[nH]c2ccccc12)C(=O)N[C@H](C(=O)N[C@@H](CCCCN)C(=O)N[C@@H](CCCNC(=N)N)C(=O)N[C@@H](CCCCN)C(=O)N[C@@H](CCCNC(=N)N)C(=O)N[C@@H](CCC(N)=O)C(=O)N[C@@H](CCC(N)=O)C(N)=O)[C@@H](C)CC)[C@@H](C)CC)[C@@H](C)O)[C@@H](C)O)C(C)C)C(C)C` [melittin, reference compound], the “MIC E. coli UB 1005” value in the data set on Escherichia coli UB1005 is 2 µM (≈ 5.69 µg/mL). Also, the “MIC S. typhimurium C77-31” value in data set [1] is 2 µM (≈ 5.69 µg/mL). Moreover, in data set [2], the “MIC S. epidermidis ATCC 12228” value was determined as 0.5 µM (≈ 1.42 µg/mL). In addition, the “GM, geometric mean of the MICs” value in data set [3] is recorded as 2.52 µM. Further, the “Concentration causing complete hemolysis” value in the data set on human erythrocytes was determined as 4 µM. Moreover, the “Cells stained with PI” value in the data set on E. coli ATCC 25922 was 40.7%. Besides, the “Cytoplasmic membrane depolarization (diSC3(5) fluorescence, in words)” value in the data set with E. coli UB1005 was “induced dose-dependent increases in diSC3(5) fluorescence”.
